The test system of this assay is p62 puncta in HeLa cells. The experiment in a line: p62 puncta assay (immunocytochemistry and imaging, EVOS M7000 or Operetta CLS). In kind it is cell-based. The note with it: Homo sapiens, fold change in p62 puncta levels relative to DMSO control, 24 hr. As for the experimental part: HeLa cells were seeded in coated 96-well plates (10,000 cells) and allowed to adhere overnight. After 24 hours of treatment with either vehicle (DMSO) or test compounds, the media was discarded, and cells were rinsed with ice-cold 1×PBS before fixation by 4% formaldehyde or paraformaldehyde for 20 min. Cells were then washed with 1×PBS and permeabilized with 0.1% Triton X-100 in PBS for 20 min and blocked with Blocking Buffer in PBS for 1 hour. The cells were incubated thereafter for 1 hour with anti-p62 primary antibody in Blocking Buffer, followed by incubation with secondary antibody for 1 hour. DAPI dye was used to visualize nuclei of fixed cells. The blocking buffer used were 5% Fetal Bovine Serum (FBS, ThermoFIsher Scientific, 10270106) and Li-cor Intercept (PBS) Blocking Buffer (Li-cor, 927-70001). The primary antibody used was mouse anti-p62 primary antibody (Novus Biologicals, H00008878-MO1). The secondary antibodies used were goat anti-mouse Alexa Fluor Plus 488 secondary antibody (Invitrogen, GOXMS) and goat anti-mouse Alexa Fluor 488 secondary antibody (Invitrogen, A-11029). The DAPI dyes used were DAPI dye (Invitrogen, 62248) and DAPI dye (Invitrogen, D1306).
For the EVOS M7000 System, cells were imaged on the EVOS M7000 microscope using a 20× air objective (Nikon, N.A 0.45). DAPI and p62 channels were illuminated with LED light cubes using integrated hard-coated filter sets for DAPI (357/447 nm) and GFP (470/525 nm) respectively. Images were analysed for p62 puncta count on the Celeste 6.0 software.
For the Operetta CLS System, cells were imaged on the Operetta CLS using a 63× water objective on the DAPI and Alexa 488 channels. Images were analysed for p62 puncta count on the Harmony 5.1 software.
HeLa cells were treated with compounds for 24 hours to evaluate the effect of these compounds on p62 puncta activity. The resulting changes in levels of p62 puncta were assessed by imaging, either on the EVOS M7000 or Operetta CLS systems as described in experimental procedures. The fold change of p62 puncta levels induced by compound treatment relative to vehicle control (DMSO) was determined and summarized in Table 10.
Turning to `COCCNCc1ccc2cc(-c3ccccc3)oc2c1` [compound 105], the fold induction at 5 µM is > 2.
For `C#CCCCCCCCCOCCNCc1ccc2cc(CCc3ccc(F)cc3)oc2c1` [compound 161], the fold induction at 5 µM is > 2.
The same measure for `CC(C)(C)OC(=O)NCCOCCOCCNCc1ccc2cc(CCc3ccc(F)cc3)oc2c1` [compound 124]: > 2; for `CO[C@@H]1CCCN(Cc2ccc3cc(-c4ccccc4)oc3c2)C1` [compound 109]: < 2.
The same measure for `CC(C)(C)OC(=O)N1CC(COCCNCc2ccc3cc(CCc4ccc(F)cc4)oc3c2)C1` [compound 155]: > 2; for `COC(=O)CCOCCOCCNCc1ccc2cc(-c3ccccc3)oc2c1` [compound 95, methyl 3-(2-(2-(((2-phenylbenzofuran-6-yl)methyl)amino)ethoxy)ethoxy)propanoate]: > 2; for `Fc1ccc(CCc2cc3ccc(CNCCOCCCCl)cc3o2)cc1` [compound 136]: > 2.
`CC(C)(C)OC(=O)N1CCC(OCCOCCNCc2ccc3cc(CCc4ccc(F)cc4)oc3c2)CC1` [compound 90]: the fold induction at 5 µM is > 2.
For `CC(C)(C)OC(=O)NC1(COCCNCc2ccc3cc(CCc4ccc(F)cc4)oc3c2)CC1` [compound 156] the value was > 2; for `CC(C)(C)OC(=O)NCCCCCCCCOCCNCc1ccc2cc(CCc3ccc(F)cc3)oc2c1` [compound 149], > 2; for `OCCNCc1ccc2cc(CN3CCCCC3)oc2c1` [compound 25], < 2.
With `CC(C)(C)OC(=O)N1CC(OCCNCc2ccc3cc(CCc4ccc(F)cc4)oc3c2)C1` [compound 158], the fold induction at 5 µM was > 2.
Consider `CC(C)(C)OC(=O)NCCCOCCNCc1ccc2cc(CCc3ccc(F)cc3)oc2c1` [compound 154], for which the fold induction at 5 µM is > 2.
Regarding `CC(C)(C)OC(=O)NC1CCN(CCOCCNCc2ccc3cc(CCc4ccc(F)cc4)oc3c2)CC1` [compound 166], the fold induction at 5 µM was > 2.
Regarding `C#CCCOCCOCCOCCNCc1ccc2cc(-c3ccccc3)oc2c1` [compound 94], the fold induction at 5 µM is > 2.
Take `OCCNCc1ccc2nc(-c3ccccc3)oc2c1` [compound 106]: the fold induction at 5 µM is > 2.
With `CC(C)(C)OC(=O)COCCNCc1ccc2cc(CCc3ccc(F)cc3)oc2c1` [compound 131], the fold induction at 5 µM is > 2.
For the compound `CC(C)(C)OC(=O)N1CCC(COCCOCCNCc2ccc3cc(CCc4ccc(F)cc4)oc3c2)CC1` [compound 165], the fold induction at 5 µM is > 2.
As to `CC(C)(C)OC(=O)Nc1cccc(COCCNCc2ccc3cc(CCc4ccc(F)cc4)oc3c2)c1` [compound 153], the fold induction at 5 µM was > 2.
Take `CC(C)(C)OC(=O)NC[C@H]1CC[C@H](COCCNCc2ccc3cc(CCc4ccc(F)cc4)oc3c2)CC1` [compound 167]: the fold induction at 5 µM is > 2.
`COC(=O)CCOCCNCC(O)COc1ccc2cc(Cc3ccccc3)oc2c1` (stereo not drawn) [compound 99]: the fold induction at 5 µM is < 2.
For `C#CCCOCCOCCNCc1ccc2cc(CCc3ccc(F)cc3)oc2c1` [compound 83, 2-(2-(but-3-yn-1-yloxy)ethoxy)-N-((2-(4-fluorophenethyl)benzofuran-6-yl)methyl)ethan-1-amine], the fold induction at 5 µM was > 2.
As to `C#Cc1ccc(COCCNCc2ccc3cc(CCc4ccc(F)cc4)oc3c2)cc1` [compound 164], the fold induction at 5 µM was > 2.
Consider `C#CCCOCCOCCOCCNCc1ccc2cc(Cc3ccc(Cl)cc3)oc2c1` [compound 96], for which the fold induction at 5 µM is > 2.
On to `COc1ccc(-c2cc3ccc(CNCCO)cc3o2)cc1` [compound 76], for which the fold induction at 5 µM was > 2.
As to `C#CCOCCOCCNCc1ccc2cc(CCc3ccc(F)cc3)oc2c1` [compound 129], the fold induction at 5 µM was > 2.
Regarding `OCCNCc1ccc2cc(-c3ccccc3Cl)oc2c1` [compound 72], the fold induction at 5 µM is > 2.
`COC1CN(Cc2ccc3cc(-c4cccnc4)oc3c2)C1` [compound 112]: the fold induction at 5 µM was < 2.
Take `CC(C)(C)OC(=O)CCOCCOCCNCc1ccc2cc(CCc3ccc(F)cc3)oc2c1` [compound 127]: the fold induction at 5 µM is > 2.
Take `CC(C)(C)OC(=O)NCC1CC(COCCNCc2ccc3cc(CCc4ccc(F)cc4)oc3c2)C1` (stereo not drawn) [compound 163]: the fold induction at 5 µM was > 2.
Take `CC(C)(C)OC(=O)N1CCN(CCOCCNCc2ccc3cc(CCc4ccc(F)cc4)oc3c2)CC1` [compound 147]: the fold induction at 5 µM is > 2.
For `COC1CN(Cc2ccc3cc(-c4ccccc4)oc3c2)C1` [compound 108], the fold induction at 5 µM is > 2.
`C#CCCOCCOCCOCCNCc1ccc2cc(CCc3ccc(F)cc3)oc2c1` [compound 84]: the fold induction at 5 µM is > 2.
Turning to `CC(C)(C)OC(=O)NCCCCCOCCNCc1ccc2cc(CCc3ccc(F)cc3)oc2c1` [compound 148], the fold induction at 5 µM is < 2.
`CC(C)(C)OC(=O)N[C@H]1CC[C@H](COCCNCc2ccc3cc(CCc4ccc(F)cc4)oc3c2)CC1` [compound 168]: the fold induction at 5 µM was > 2.
`C#CCOCCOCCOCCNCc1ccc2cc(CCc3ccc(F)cc3)oc2c1` [compound 126]: the fold induction at 5 µM was > 2.
For `OCCNCc1ccc2cc(-c3cccc(Cl)c3)oc2c1` [compound 73], the fold induction at 5 µM is > 2.
For `CC(C)(C)OC(=O)c1ccc(COCCNCc2ccc3cc(CCc4ccc(F)cc4)oc3c2)cc1` [compound 134] the value was > 2.
In the case of `CCOC(=O)C1CCN(C(=O)COCCNCc2ccc3cc(CCc4ccc(F)cc4)oc3c2)CC1` [compound 142], the fold induction at 5 µM was > 2.
Take `CNCCOCCOCCOCCNCc1ccc2cc(CCc3ccc(F)cc3)oc2c1` [compound 87]: the fold induction at 5 µM is > 2.
On to `CC(C)(C)OC(=O)CCCCCCCCOCCNCc1ccc2cc(CCc3ccc(F)cc3)oc2c1` [compound 139], for which the fold induction at 5 µM is < 2.
Turning to `COC1CC(NCc2ccc3cc(-c4ccccc4)oc3c2)C1` (stereo not drawn) [compound 107], the fold induction at 5 µM is < 2.
`OCCNCc1ccc2cc(-c3ccc(Cl)cc3)oc2c1` [compound 74]: the fold induction at 5 µM was > 2.
As to `CC(C)(C)OC(=O)NCCOCCOCCOCCNCc1ccc2cc(Cc3ccccc3)oc2c1` [compound 82, tert-butyl (1-(2-benzylbenzofuran-6-yl)-5,8,11-trioxa-2-azatridecan-13-yl)carbamate], the fold induction at 5 µM is < 2.
For the compound `CO[C@H]1CCCN(Cc2ccc3cc(-c4ccccc4)oc3c2)C1` [compound 110], the fold induction at 5 µM was < 2.
The same measure for `CNC(=O)CCOCCOCCNCc1ccc2cc(-c3ccccc3)oc2c1` [compound 121]: < 2.
As for `CC(C)(C)OC(=O)N1CCC(OCCNCc2ccc3cc(CCc4ccc(F)cc4)oc3c2)C1` (stereo not drawn) [compound 157], the fold induction at 5 µM was > 2.
As for `CC(C)(C)OC(=O)CCCOCCNCc1ccc2cc(CCc3ccc(F)cc3)oc2c1` [compound 145], the fold induction at 5 µM was < 2.
As to `CC(C)NCC(O)COc1ccc2cc(-c3ccccc3)oc2c1` (stereo not drawn) [compound 78], the fold induction at 5 µM is > 2.
In the case of `OCCNCc1ccc2nc(-c3ccccc3)sc2c1` [compound 113], the fold induction at 5 µM is > 2.
In the case of `CC(C)(C)OC(=O)CCCCCOCCNCc1ccc2cc(CCc3ccc(F)cc3)oc2c1` [compound 140], the fold induction at 5 µM was < 2.

For orientation: fold induction means the ratio of treated to control signal. Lower therefore signals little rise in signal.

Source of the values: patent US20250282742A1, “BENZOFURAN DERIVATIVES FOR TARGETING AUTOPHAGY” (Automera PTE. LTD, priority 2024, published 2025).
